We go through one compound from patent US8927523B2, “Compound sea cucumber preparation and manufacturing method thereof” (Dalian Haiyantang Biology Co., Ltd., priority 2010, dated 2015).

For experiment [1], the system named is insulin resistance HepG2 cells. Put plainly: Glycerin consumption of insulin resistance HepG2 cells (GPO-POD enzyme method). It is filed as cell-based, Human. To be noted: 30 mg/L. The protocol:
(§1) Human liver cancer cell line HepG2 provided by Dalian Medical University is vaccinated in a DMEM culture medium which contains 10% volume fraction of fetal calf serum (supplementing penicillin, streptomycin […] respectively), and the culture medium is placed in a 5% CO2 cell culture box at 37° C. […] Incubate for 8 h in culture box in the conditions of 37° C. and 5% CO2 to form monolayer anchorage-dependent cells. Wash the cells twice with DMEM culture solution without fetal calf serum, then incubate the cells for 16 h with 5×10^−7 mol·L^−1 insulin culture solution in culture box in the conditions of 37° C. and 5% CO2. The HepG2 cells incubated for 16 h with insulin culture solution are model cells. Count the prepared cell suspension, adjust the cell concentration to 5×10^4·ml^−1, vaccinate on 96-well cell culture plate, 8-well in duplicate for each group, total amount of 200 uL for each well. The experiment is divided into 5 groups: normal control group, insulin resistance model group, compound sea cucumber preparation high and low dosage groups and metformin positive control group. Except the normal control group, each other group is incubated for 16 h after adding insulin with ultimate concentration of 5×10^−7 mol·L^−1 into culture solution so as to form insulin resistance model. […]

Experiment [2] relates to experimental diabetic mice caused by alloxan. The experiment in a line: Fasting plasma glucose of experimental diabetic mice caused by alloxan. Type of experiment: in vivo. The note with it: 200 mg/kg b.i.d. irrigating stomachs. The protocol:
Take male, 18˜22 g Kunming variety mice, randomly take 10 mice from them as normal control group. Other mice are injected with alloxan 50 mg/kg after fasting (water is allowed) for 16 h, determine the fasting plasma glucose (FPG) fasting for 5 h after the mice are stable for 15 days, mice with FPG>10 mmol/L are high plasma glucose model mice.
10 mice for normal control group. Take 40 high plasma glucose mice, randomly divide into high plasma glucose model group, compound sea cucumber preparation high dosage (0.5 g/kg) group, compound sea cucumber preparation low dosage (0.25 g/kg) group and positive drug metformin 200 mg/kg group.
Mice of the compound sea cucumber preparation high dosage group and the compound sea cucumber preparation low dosage group are respectively treated with 0.025 g/ml and 0.0125 g/ml suspension of compound sea cucumber preparation and normal saline 0.2 mL/10 gBW by irrigating stomachs, mice of the metformin 200 mg/kg group are treated with […] metformin normal saline solution 0.2 mL/10 gBW by irrigating stomachs, while mice of the normal control group and high plasma glucose model group are treated with equal volume of normal saline by irrigating stomachs. Mice of each group are treated twice each day (b.i.d) continuously for 4 weeks.

Experiment [3] relates to insulin resistance HepG2 cells. The experiment in a line: Glucose consumption of insulin resistance HepG2 cells (glucose oxidase method). It is filed as cell-based, Human. To be noted: 30 mg/L. On the procedure:
as §1

Experiment [4] relates to experimental diabetic mice caused by alloxan. The experiment in a line: Glucose tolerance of experimental diabetic mice caused by alloxan. Type of experiment: in vivo. To be noted: 200 mg/kg b.i.d. On the procedure:
Building of mice high glucose model, animal grouping and treating ways are the same as above description.
[formula] wherein, C is the plasma glucose value (mmol/L), t is the time after glucose load (h), i is the glucose value number; C0, C1, C2, C3, C4 are respectively plasma glucose value of before glucose load (0 min) and 30 min, 60 min, 120 min and 240 min after glucose load.

In experiment [5] the test system is insulin resistance HepG2 cells. Put plainly: Cell proliferation of insulin resistance HepG2 cells with MTT method. Type of experiment: cell-based, Human. The note with it: 30 mg/L. In general terms: Formazan colour is commonly taken as a measure of viable cells.
Experimental: Human liver cancer cell line HepG2 provided by Dalian Medical University is vaccinated in a DMEM culture medium which contains 10% volume fraction of fetal calf serum (supplementing penicillin, streptomycin 100 U·L^−1 respectively), and the culture medium is placed in a 5% CO2 cell culture box at 37° C.
Where [6] appears, read: 24 h, compared with model group.
Setting [7] is: vs high plasma glucose model group.
Where [8] appears, read: 28th day, 2 g/kg glucose by abdomen injection.

Turning to `CN(C)C(=N)N=C(N)N` [Metformin, metformin], the “Glycerin consumption increase %” value in experiment [1] (setting [6]) is reported as 165.97%. Further, in experiment [1] (24 h after treating), the “Glycerin consumption” value was 0.39 ± 0.02 mmol/L. Also, in experiment [2] (n=10), the “Fasting Plasma Glucose (FPG) 7 days after treating” value is reported as 18.80 ± 2.77 mmol/L, the “Fasting Plasma Glucose (FPG) 14 days after treating” value is recorded as 24.59 ± 4.17 mmol/L, the “Fasting Plasma Glucose (FPG) 21 days after treating” value is on record as 21.18 ± 3.12 mmol/L and the “Fasting Plasma Glucose (FPG) 28 days after treating” value stood at 20.72 ± 3.03 mmol/L. In experiment [2] (n=10), the “Weight 28 days after treating” value was 31.76 ± 1.74 g. Besides, in experiment [2] (setting [7]), the “FPG Reduce % 7 days after treating” value is given as 21.7%, the “FPG Reduce % 14 days after treating” value is on record as 17.1%, the “FPG Reduce % 21 days after treating” value turned out to be 29.5% and the “FPG Reduce % 28 days after treating” value came to 31.3%. In experiment [3] (setting [6]), the “Glucose consumption increase %” value worked out at 115.10%. Moreover, the “Glucose consumption” value in experiment [3] (24 h after treating) is reported as 2.83 ± 0.14 mmol/L. In addition, the “Area under the glucose load curve (ADC, mmol · h/L)” value in experiment [4] (28th day, 0-240 min, trapezoid area method) is 106.05 ± 12.0 mmol·h/L. Besides, in experiment [4] (setting [8]), the “Plasma Glucose after glucose load 30 min” value amounted to 31.68 ± 2.78 mmol/L, the “Plasma Glucose after glucose load 60 min” value was 31.19 ± 3.42 mmol/L, the “Plasma Glucose after glucose load 120 min” value is reported as 27.43 ± 4.37 mmol/L and the “Plasma Glucose after glucose load 240 min” value came out at 20.49 ± 2.58 mmol/L. In experiment [4] (28th day, vs high plasma glucose model group), this compound came in with an AUC reduce % of 18.2%. The “Fasting Plasma Glucose (FPG, mmol/L)” value in experiment [4] (28th treating day, before glucose load) was found to be 20.72 ± 3.03 mmol/L. In addition, in experiment [5], the Cell increase % was determined as 0.28% and the Cell survival % is recorded as 100.28 ± 1.93Δ %.
